The test deals with Recombinant human BACE-1 (Homo sapiens (Human), UniProt P56817). In words: Assay of β-secretase-inhibiting activity. In kind it is biochemical. As to conditions: substrate peptide 18 nM, BACE-1 7.4 nM, sodium acetate buffer pH 5.0, 30° C. for 3 hours.

The term IC50 denotes the point on the concentration scale where inhibition reaches its midpoint.

Recombinant human BACE-1, sequence (P56817 46-501): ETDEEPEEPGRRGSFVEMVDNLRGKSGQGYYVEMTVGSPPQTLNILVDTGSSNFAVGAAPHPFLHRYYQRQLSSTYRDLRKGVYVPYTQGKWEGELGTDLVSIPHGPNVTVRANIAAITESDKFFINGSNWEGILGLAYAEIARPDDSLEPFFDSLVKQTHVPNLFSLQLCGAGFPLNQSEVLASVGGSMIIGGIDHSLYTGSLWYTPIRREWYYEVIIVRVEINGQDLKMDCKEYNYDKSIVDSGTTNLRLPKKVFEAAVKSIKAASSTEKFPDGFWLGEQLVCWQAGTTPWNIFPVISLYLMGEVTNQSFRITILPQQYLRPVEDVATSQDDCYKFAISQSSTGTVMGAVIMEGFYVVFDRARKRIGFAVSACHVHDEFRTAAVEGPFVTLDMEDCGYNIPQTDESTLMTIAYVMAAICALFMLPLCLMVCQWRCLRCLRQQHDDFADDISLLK

With `CC1(C)C[C@@](C)(c2cncc(NC(=O)c3ccc(Cl)cn3)c2)N=C(N)S1` [Compound 604], the half-inhibitory concentration (IC50) is at most 1000 nM.

These data come from US8541408B2, “Aminodihydrothiazine derivatives substituted with a cyclic group” (Shionogi & Co., Ltd., priority 2007, dated 2013).
